Test results from US8361964B2, “Growth hormone releasing factor (GRF) analogs and uses thereof” (Theratechnologies Inc., priority 2011, dated 2013).
Where a SMILES comes first, the peptide text is derived from it.

Tests used:
[1] = tested on: Growth Hormone secretion; experiment: Growth Hormone secretion in female mice after subcutaneous GRF analog; type: in vivo; details: female CD-1 mice; 10 μg/mouse subcutaneous; plasma 10 minutes after injection
Excerpt: CD-1 mice (female, weighting from 20 to 25 g) were obtained from Charles River Inc. Animals were used according to a protocol of the Animal Care Committee along with the principles of the Guide for the Care and Use of Experimental Animals of the Canadian Council on Animal Care. The animals were maintained on standard laboratory chow under a 12:12 light:dark cycle. They were kept in groups of 4 mice per cage.
At the day of the experiment, mice received a subcutaneous injection of GRF analog (10 μg/mouse dissolved in 20 mM sodium acetate (AcONa)+5% mannitol at pH 5). 10 minutes after injection, the mice were anesthezied with isolufrane. Blood samples (500 μl) were obtained by intra-cardiac puncture. Blood was placed into microtainer pre-treated with K3EDTA and immediately centrifuged at 13,000 RPM in a desktop centrifuge for 2 minutes. The plasma was collected and placed into a screwcap Eppendorf™ tube and quick frozen in liquid nitrogen. The samples were then kept at −80° C. until assayed. Determination of GH levels was performed as described below.
(§1) Rat and mouse plasma samples were vortexed carefully and centrifuged at 9,000 RPM for 2 min at 4° C. The dosage of GH levels was performed using the Rat/Mouse Growth Hormone ELISA kit from Millipore (Cat. # EZRMGH-45K). Sample supernatants were first diluted 20-fold with the GH ELISA assay buffer, and 10 μl of this dilution was added to the ELISA plate with 90 μl of GH EIA assay buffer. The remaining of the procedure was performed according to the manufacturer's instructions, and the data obtained were analyzed using GraphPad Prism™ software.
(§2) The GRF analogs described herein were tested for their ability to induce GH release in female mice and rats. […] The data are presented in Tables III (mice) and IV-V (rats).

[2] = tested on: Growth Hormone secretion; experiment: Growth Hormone secretion in female rats after subcutaneous GRF analog; type: in vivo; details: female Sprague-Dawley rats; 10 μg/rat subcutaneous; plasma 0-60 minutes
Excerpt: Sprague-Dawley rats (female, weighting from 250 to 300 g) were obtained from Charles River Inc. Animals were used according to a protocol of the Animal Care Committee along with the principles of the Guide for the Care and Use of Experimental Animals of the Canadian Council on Animal Care. The animals were maintained on standard laboratory chow under a 12:12 light:dark cycle. They were kept in groups of 4 rats per cage.
The animals were anesthetized with isoflurane 2.5%. A mid-section opening was made in the neck to expose the carotid artery. The carotid artery was canulated with polypropylene tubing (PE-50) to allow blood withdrawal. After surgical preparation, rats received a subcutaneous injection of GRF analog (10 μg/rat dissolved in 20 mM AcONa+5% mannitol at pH 5). For pharmacodynamics studies, blood samples (400 μL) were collected from 4 to 8 animals per group per time point. Blood samples (400 μl) were collected via the carotid catheter at 0, 10, 20, 30, 45 and 60 minutes after drug injection. Blood was placed into microtainer pre-treated with K3EDTA and immediately centrifuged at 13,000 RPM in a desktop centrifuge for 2 minutes. The plasma was collected and placed into a screw cap Eppendorf™ and quick frozen in liquid nitrogen. The samples were then kept at −80° C. until assayed. Determination of GH levels was performed as described below.
as §1, §2

Compound	GH levels 10 min [1] [ng/mL]	Mean AUC (GH Area Under the curve, GH concentration over time) [2]	Mean Cmax (ng/ml) of Growth Hormone secretion [2] [ng/mL]
CC/C=C/CC(=O)N[C@@H](Cc1ccc(O)cc1)C(=O)N[C@@H](C)C(=O)N[C@@H](CC(=O)O)C(=O)N[C@@H](C)C(=O)N[C@H](C(=O)N[C@@H](Cc1ccccc1)C(=O)N[C@H](C(=O)N[C@@H](CC(=O)O)C(=O)N[C@@H](CO)C(=O)N[C@@H](Cc1ccc(O)cc1)C(=O)N[C@@H](CCCNC(=N)N)C(=O)N[C@@H](CCCCN)C(=O)N[C@H](C(=O)N[C@@H](CC(C)C)C(=O)N[C@@H](C)C(=O)N[C@@H](CCC(N)=O)C(=O)N[C@@H](CC(C)C)C(=O)N[C@@H](CCCCN)C(=O)N[C@@H](C)C(=O)N[C@@H](CCCNC(=N)N)C(=O)N[C@@H](CCC(N)=O)C(=O)N[C@@H](CC(=O)O)C(=O)N[C@H](C(=O)N[C@@H](CC(C)C)C(=O)N[C@@H](C)C(=O)N[C@@H](CCCNC(=N)N)C(N)=O)[C@@H](C)CC)C(C)C)[C@@H](C)O)[C@@H](C)CC [SEQ ID NO: 20, Trans-3-hexenoyl-YADAIFTDSYRKVLAQLKARQDILAR-NH2] (HELM PEPTIDE1{[CC/C=C/CC(=O)[*:2]].Y.A.D.A.I.F.T.D.S.Y.R.K.V.L.A.Q.L.K.A.R.Q.D.I.L.A.R.[am]}$$$$V2.0)	307.7	966	31.7
CC[C@H](C)[C@H](NC(=O)[C@H](C)NC(=O)[C@H](CC(=O)O)NC(=O)[C@@H](C)NC(=O)[C@@H](N)Cc1ccc(O)cc1)C(=O)N[C@@H](Cc1ccccc1)C(=O)N[C@H](C(=O)N[C@@H](CC(=O)O)C(=O)N[C@@H](CO)C(=O)N[C@@H](Cc1ccc(O)cc1)C(=O)N[C@@H](CCCNC(=N)N)C(=O)N[C@@H](CCCCN)C(=O)N[C@H](C(=O)N[C@@H](CC(C)C)C(=O)N[C@@H](C)C(=O)N[C@@H](CCC(N)=O)C(=O)N[C@@H](CC(C)C)C(=O)N[C@@H](CCCCN)C(=O)N[C@@H](C)C(=O)N[C@@H](CCCNC(=N)N)C(=O)N[C@@H](CCC(N)=O)C(=O)N[C@@H](CC(=O)O)C(=O)N[C@H](C(=O)N[C@@H](CC(C)C)C(=O)N[C@@H](CO)C(=O)N[C@H](CCCNC(=N)N)C(N)=O)[C@@H](C)CC)C(C)C)[C@@H](C)O [SEQ ID NO: 21, Y-a-DAIFTDSYRKVLAQLKARQDILS-r-NH2] (HELM PEPTIDE1{Y.[dA].D.A.I.F.T.D.S.Y.R.K.V.L.A.Q.L.K.A.R.Q.D.I.L.S.[dR].[am]}$$$$V2.0)	104.4	3130	135.9
CC[C@H](C)[C@H](NC(=O)[C@H](C)NC(=O)[C@H](CC(=O)O)NC(=O)[C@@H](C)NC(=O)[C@@H](N)Cc1ccc(O)cc1)C(=O)N[C@@H](Cc1ccccc1)C(=O)N[C@H](C(=O)N[C@@H](CC(=O)O)C(=O)N[C@@H](CO)C(=O)N[C@@H](Cc1ccc(O)cc1)C(=O)N[C@@H](CCCNC(=N)N)C(=O)N[C@@H](CCCCN)C(=O)N[C@H](C(=O)N[C@@H](CC(C)C)C(=O)N[C@@H](C)C(=O)N[C@@H](CCC(N)=O)C(=O)N[C@@H](CC(C)C)C(=O)N[C@@H](CCCCN)C(=O)N[C@@H](C)C(=O)N[C@@H](CCCNC(=N)N)C(=O)N[C@@H](CCC(N)=O)C(=O)N[C@@H](CC(=O)O)C(=O)N[C@H](C(=O)N[C@@H](CC(C)C)C(=O)NC(C)(C)C(=O)N[C@@H](CCCNC(=N)N)C(N)=O)[C@@H](C)CC)C(C)C)[C@@H](C)O [SEQ ID NO: 22, Y-a-DAIFTDSYRKVLAQLKARQDIL-aib-R-NH2] (HELM PEPTIDE1{Y.[dA].D.A.I.F.T.D.S.Y.R.K.V.L.A.Q.L.K.A.R.Q.D.I.L.[Aib].R.[am]}$$$$V2.0)	249.1	–	–
CC[C@H](C)[C@H](NC(=O)[C@H](C)NC(=O)[C@H](CC(=O)O)NC(=O)[C@@H](C)NC(=O)[C@@H](N)Cc1ccc(O)cc1)C(=O)N[C@@H](Cc1ccccc1)C(=O)N[C@H](C(=O)N[C@@H](CC(=O)O)C(=O)N[C@@H](CO)C(=O)N[C@@H](Cc1ccc(O)cc1)C(=O)N[C@@H](CCCNC(=N)N)C(=O)N[C@@H](CCCCN)C(=O)N[C@H](C(=O)N[C@@H](CC(C)C)C(=O)N[C@@H](C)C(=O)N[C@@H](CCC(N)=O)C(=O)N[C@@H](CC(C)C)C(=O)N[C@@H](CCCN)C(=O)N[C@@H](C)C(=O)N[C@@H](CCCNC(=N)N)C(=O)N[C@@H](CCC(N)=O)C(=O)N[C@@H](CC(=O)O)C(=O)N[C@H](C(=O)N[C@@H](CC(C)C)C(=O)N[C@@H](CO)C(=O)N[C@H](CCCNC(=N)N)C(N)=O)[C@@H](C)CC)C(C)C)[C@@H](C)O [SEQ ID NO: 23, Y-a-D-A-I-F-T-D-S-Y-R-K-V-L-A-Q-L-O-A-R-Q-D-I-L-S-r-NH2] (HELM PEPTIDE1{Y.[dA].D.A.I.F.T.D.S.Y.R.K.V.L.A.Q.L.[Orn].A.R.Q.D.I.L.S.[dR].[am]}$$$$V2.0)	269.9	–	–
CC/C=C/CC(=O)N[C@@H](Cc1ccc(O)cc1)C(=O)N[C@@H](C)C(=O)N[C@@H](CC(=O)O)C(=O)N[C@@H](C)C(=O)N[C@H](C(=O)N[C@@H](Cc1ccccc1)C(=O)N[C@H](C(=O)N[C@@H](CC(=O)O)C(=O)N[C@@H](CO)C(=O)N[C@@H](Cc1ccc(O)cc1)C(=O)N[C@@H](CCCNC(=N)N)C(=O)N[C@@H](CCCCN)C(=O)N[C@H](C(=O)N[C@@H](CC(C)C)C(=O)N[C@@H](C)C(=O)N[C@@H](CCC(N)=O)C(=O)N[C@@H](CC(C)C)C(=O)N[C@@H](CCCN)C(=O)N[C@@H](C)C(=O)N[C@@H](CCCNC(=N)N)C(=O)N[C@@H](CCC(N)=O)C(=O)N[C@@H](CC(=O)O)C(=O)N[C@H](C(=O)N[C@@H](CC(C)C)C(=O)N[C@@H](CO)C(=O)N[C@H](CCCNC(=N)N)C(N)=O)[C@@H](C)CC)C(C)C)[C@@H](C)O)[C@@H](C)CC [SEQ ID NO: 24, Trans-3-hexenoyl-Y-A-D-A-I-F-T-D-S-Y-R-K-V-L-A-Q-L-O-A-R-Q-D-I-L-S-r-NH2] (HELM PEPTIDE1{[CC/C=C/CC(=O)[*:2]].Y.A.D.A.I.F.T.D.S.Y.R.K.V.L.A.Q.L.[Orn].A.R.Q.D.I.L.S.[dR].[am]}$$$$V2.0)	332.6	–	–
CC[C@H](C)[C@H](NC(=O)[C@H](C)NC(=O)[C@H](CC(=O)O)NC(=O)[C@@H](C)NC(=O)[C@@H](N)Cc1ccc(O)cc1)C(=O)N[C@@H](Cc1ccccc1)C(=O)N[C@H](C(=O)N[C@@H](CC(=O)O)C(=O)N[C@@H](CO)C(=O)N[C@@H](Cc1ccc(O)cc1)C(=O)N[C@@H](CCCNC(=N)N)C(=O)N[C@@H](CCCCN)C(=O)N[C@H](C(=O)N[C@@H](CC(C)C)C(=O)N[C@@H](C)C(=O)N[C@@H](CCC(N)=O)C(=O)N[C@@H](CC(C)C)C(=O)N[C@@H](CCCCN)C(=O)N[C@@H](C)C(=O)N[C@@H](CCCNC(=N)N)C(=O)N[C@@H](CCC(N)=O)C(=O)N[C@@H](CC(=O)O)C(=O)N[C@@H](CC(C)C)C(=O)N[C@@H](CC(C)C)C(=O)N[C@@H](CO)C(=O)N[C@H](CCCNC(=N)N)C(N)=O)C(C)C)[C@@H](C)O [SEQ ID NO: 25, Y-a-DAIFTDSYRKVLAQLKARQDLLS-r-NH2] (HELM PEPTIDE1{Y.[dA].D.A.I.F.T.D.S.Y.R.K.V.L.A.Q.L.K.A.R.Q.D.L.L.S.[dR].[am]}$$$$V2.0)	144.1	–	–
H-YLDAIFTDSYRKVLAQLKARQDILARAARAAR-NH2 [SEQ ID NO: 35, YLDAIFTDSYRKVLAQLKARQDILARAARAAR-NH2]	–	9144	376.9
